From patent publication US8022206B2 (OSI Pharmaceuticals, LLC, priority 2008, dated 2011) come the findings set out here.

One assay has as its target RON (human) (Homo sapiens, UniProt Q04912). Description: RON (human) AlphaScreen kinase assay, Km of ATP. It counts as biochemical. Conditions: AlphaScreen, Km of ATP; read-out: RON biochemical IC50. An outline of the steps: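 Detection used PT66 AlphaScreen beads added in Tris pH 7.5/NaCl/EDTA/BSA buffer, read after 1 h incubation. Vehicle-only DMSO wells served as controls.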

The target of the next assay is MET (human) (Homo sapiens, UniProt P08581). Description: MET (human) AlphaScreen kinase assay, Km of ATP. Conditions: AlphaScreen, Km of ATP; read-out: Met biochemical IC50. It counts as biochemical. The method in brief:
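Human MET at lot-optimised concentration in 50 mM Tris pH 7.4 buffer with 1 mM DTT, compound at 1% DMSO final; enzyme starts the reaction, 60 min at RT.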
Background: Alpha assays give light when donor and acceptor beads are brought close together.

Each structure is given as a SMILES string.

Chain of RON (human) (Q04912 25-1400): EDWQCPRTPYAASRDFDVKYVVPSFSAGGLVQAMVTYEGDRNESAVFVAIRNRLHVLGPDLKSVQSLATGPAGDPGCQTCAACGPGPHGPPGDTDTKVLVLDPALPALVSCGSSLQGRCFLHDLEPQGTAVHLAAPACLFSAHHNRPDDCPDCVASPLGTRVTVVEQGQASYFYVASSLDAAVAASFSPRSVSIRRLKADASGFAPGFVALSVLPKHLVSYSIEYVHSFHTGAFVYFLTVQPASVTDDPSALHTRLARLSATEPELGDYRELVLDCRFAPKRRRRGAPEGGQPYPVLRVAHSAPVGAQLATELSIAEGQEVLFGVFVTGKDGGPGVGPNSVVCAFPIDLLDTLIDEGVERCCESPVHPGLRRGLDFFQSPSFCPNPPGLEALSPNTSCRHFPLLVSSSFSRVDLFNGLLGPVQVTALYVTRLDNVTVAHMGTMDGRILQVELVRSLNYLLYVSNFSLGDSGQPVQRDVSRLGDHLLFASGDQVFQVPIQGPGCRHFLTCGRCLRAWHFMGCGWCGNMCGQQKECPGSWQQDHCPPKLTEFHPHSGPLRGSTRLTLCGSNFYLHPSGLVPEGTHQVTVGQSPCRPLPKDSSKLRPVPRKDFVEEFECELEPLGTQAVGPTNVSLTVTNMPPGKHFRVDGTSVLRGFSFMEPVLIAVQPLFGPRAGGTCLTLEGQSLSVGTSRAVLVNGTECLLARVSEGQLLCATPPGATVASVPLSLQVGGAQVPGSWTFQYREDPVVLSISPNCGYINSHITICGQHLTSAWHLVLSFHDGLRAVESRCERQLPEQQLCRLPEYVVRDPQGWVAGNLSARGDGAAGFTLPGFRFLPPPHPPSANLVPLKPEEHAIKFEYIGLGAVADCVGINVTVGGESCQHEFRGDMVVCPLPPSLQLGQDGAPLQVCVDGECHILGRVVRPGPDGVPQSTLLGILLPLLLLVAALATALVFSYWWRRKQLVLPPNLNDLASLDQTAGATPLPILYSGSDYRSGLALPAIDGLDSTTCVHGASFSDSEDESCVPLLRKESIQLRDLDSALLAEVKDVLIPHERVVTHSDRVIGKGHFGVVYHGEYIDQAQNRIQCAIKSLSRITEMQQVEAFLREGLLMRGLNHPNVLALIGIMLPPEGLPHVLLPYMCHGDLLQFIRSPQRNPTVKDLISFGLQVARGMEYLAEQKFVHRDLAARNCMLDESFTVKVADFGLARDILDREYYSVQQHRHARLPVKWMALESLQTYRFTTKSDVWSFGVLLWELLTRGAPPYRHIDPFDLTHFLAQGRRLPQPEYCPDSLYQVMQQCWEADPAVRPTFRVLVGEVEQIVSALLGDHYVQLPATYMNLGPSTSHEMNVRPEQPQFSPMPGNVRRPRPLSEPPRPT
Chain of MET (human) (P08581 25-1390): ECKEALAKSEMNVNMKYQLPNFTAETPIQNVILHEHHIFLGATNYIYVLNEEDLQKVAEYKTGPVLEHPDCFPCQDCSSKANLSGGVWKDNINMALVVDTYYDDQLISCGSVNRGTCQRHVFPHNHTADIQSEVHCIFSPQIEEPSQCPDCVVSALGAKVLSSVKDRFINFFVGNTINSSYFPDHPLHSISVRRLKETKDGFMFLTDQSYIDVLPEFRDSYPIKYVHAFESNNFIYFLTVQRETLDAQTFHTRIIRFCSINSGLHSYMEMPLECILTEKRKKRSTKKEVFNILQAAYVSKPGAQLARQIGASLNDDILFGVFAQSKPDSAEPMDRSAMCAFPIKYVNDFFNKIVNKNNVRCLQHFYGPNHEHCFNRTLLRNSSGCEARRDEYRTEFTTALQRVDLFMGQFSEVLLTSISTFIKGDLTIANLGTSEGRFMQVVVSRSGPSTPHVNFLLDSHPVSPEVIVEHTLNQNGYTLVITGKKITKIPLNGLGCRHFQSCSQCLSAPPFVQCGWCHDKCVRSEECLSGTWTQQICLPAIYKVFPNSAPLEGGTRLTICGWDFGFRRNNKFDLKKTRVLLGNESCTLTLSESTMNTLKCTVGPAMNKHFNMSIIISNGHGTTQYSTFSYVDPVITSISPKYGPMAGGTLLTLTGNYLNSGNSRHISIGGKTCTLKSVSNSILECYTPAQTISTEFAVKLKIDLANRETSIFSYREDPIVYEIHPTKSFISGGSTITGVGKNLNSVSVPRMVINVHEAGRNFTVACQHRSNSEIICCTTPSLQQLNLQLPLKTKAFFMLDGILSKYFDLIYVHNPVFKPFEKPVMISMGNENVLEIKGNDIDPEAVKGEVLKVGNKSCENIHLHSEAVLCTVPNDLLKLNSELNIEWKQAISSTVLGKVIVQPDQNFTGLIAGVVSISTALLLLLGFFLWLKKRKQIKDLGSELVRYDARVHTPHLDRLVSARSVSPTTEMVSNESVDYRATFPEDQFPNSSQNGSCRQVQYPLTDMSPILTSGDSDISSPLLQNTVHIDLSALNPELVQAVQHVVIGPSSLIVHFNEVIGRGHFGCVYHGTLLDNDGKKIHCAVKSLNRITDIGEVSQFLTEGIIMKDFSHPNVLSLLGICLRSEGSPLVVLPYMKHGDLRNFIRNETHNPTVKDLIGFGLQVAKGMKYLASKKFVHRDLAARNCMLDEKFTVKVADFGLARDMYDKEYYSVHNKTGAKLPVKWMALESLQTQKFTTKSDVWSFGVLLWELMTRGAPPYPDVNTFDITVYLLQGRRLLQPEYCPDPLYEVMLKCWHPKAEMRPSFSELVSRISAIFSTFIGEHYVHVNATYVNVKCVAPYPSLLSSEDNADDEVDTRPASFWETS

Regarding `COC(=O)c1coc2c(O[C@H](C)c3c(Cl)ccc(F)c3Cl)c(N)ncc12` [Example 175, 6-Amino-7-[(R)-1-(2,6-dichloro-3-fluorophenyl)ethoxy]furo[3,2-c]pyridine-3-carboxylic acid methyl ester], the results for the IC50 at RON (human) and at MET (human) were 5 to 20 µM and 0.5 to 5 µM, respectively.

In the case of `CC(C)CN1CC=C(c2coc3c(O[C@H](C)c4c(Cl)ccc(F)c4Cl)c(N)ncc23)CC1` [Example 41, 7-[(R)-1-(2,6-Dichloro-3-fluorophenyl)-ethoxy]-3-(1-isobutyl-1,2,3,6-tetrahydropyridin-4-yl)-furo[3,2-c]pyridin-6-ylamine], the IC50 on RON (human) and on MET (human) was less than 0.5 µM each time.

With `C[C@@H](Oc1c(N)ncc2c(-c3cnn(C4CCN(S(C)(=O)=O)CC4)c3)coc12)c1c(Cl)ccc(F)c1Cl` [Example 275, 7-[(1R)-1-(2,6-Dichloro-3-fluorophenyl)ethoxy]-3-{1-[1-(methyl-sulfonyl)piperidin-4-yl]-1H-pyrazol-4-yl}furo[3,2-c]pyridin-6-amine], the IC50 at RON (human) and at MET (human) was 0.5 to 5 µM throughout.

As for `COCCNC(=O)c1coc2c(O[C@H](C)c3c(Cl)ccc(F)c3Cl)c(N)ncc12` [Example 192, 6-Amino-7-[(R)-1-(2,6-dichloro-3-fluorophenyl)ethoxy]furo[3,2-c]pyridine-3-carboxylic acid (3-methoxyethyl)amide], the IC50 at RON (human) is 0.5 to 5 µM; at MET (human) it was less than 0.5 µM.

As for `C[C@@H](Oc1c(N)ncc2c(C3=CCN(C(=O)[C@@H]4CCCNC4)CC3)coc12)c1c(Cl)ccc(F)c1Cl` [Example 241, (4-{6-Amino-7-[(R)-1-(2,6-dichloro-3-fluorophenyl)ethoxy]-furo[3,2-c]pyridin-3-yl}-3,6-dihydro-2H-pyridin-1-yl)-(R)-piperidin-3-ylmethanone], the IC50 at RON (human) and on MET (human) was less than 0.5 µM each time.

With `Cn1cc(-c2ccc3nnc(COc4c(N)ncc5ccoc45)n3n2)cn1` [Example 472, 7-{[6-(1-methyl-1H-pyrazol-4-yl) [1,2,4]triazolo[4,3-b]pyridazin-3-yl]methoxy}furo[3,2-c]pyridin-6-amine], the IC50 was 5 to 20 µM on RON (human) and 0.5 to 5 µM at MET (human).

Consider `Cc1ccc(C(C)Oc2c(N)ncc3c(-c4cnn(C5CCNCC5)c4)coc23)cc1` (centres unmarked) [Example 344, 3-(1-Piperidin-4-yl-1H-pyrazol-4-yl)-7-(1-p-tolylethoxy)furo[3,2-c]pyridin-6-ylamine], for which the IC50 at RON (human) and on MET (human) was 0.5 to 5 µM each time.

On to `C[C@@H](Oc1c(N)ncc2c(-c3csc(CN)c3)coc12)c1c(Cl)ccc(F)c1Cl` [Example 310, 3-(5-Aminomethylthiophen-3-yl)-7-[(R)-1-(2,6-dichloro-3-fluoro-phenyl)ethoxy]furo[3,2-c]pyridin-6-ylamine], for which the IC50 on RON (human) and at MET (human) was less than 0.5 µM throughout.

In the case of `C[C@@H](Oc1c(N)ncc2c(-c3csc(C(=O)NC(C)(C)C)c3)coc12)c1c(Cl)ccc(F)c1Cl` [Example 315, 4-{6-Amino-7-[(R)-1-(2,6-dichloro-3-fluorophenyl)ethoxy]-furo[3,2-c]pyridin-3-yl}thiophene-2-carboxylic acid tert-butylamide], the IC50 is 0.5 to 5 µM on RON (human) and less than 0.5 µM on MET (human).

Take `C[C@@H](Oc1c(N)ncc2c(C3=CCN(C(=O)C4CCCCN4C)CC3)coc12)c1c(Cl)ccc(F)c1Cl` (stereo partly drawn) [Example 236, (4-{6-Amino-7-[(R)-1-(2,6-dichloro-3-fluorophenyl)ethoxy]-furo[3,2-c]pyridin-3-yl}-3,6-dihydro-2H-pyridin-1-yl)-(1-methylpiperidin-2-yl)methanone]: the IC50 on RON (human) and at MET (human) was less than 0.5 µM throughout.

Regarding `Nc1ncc2c(-c3cnn(C4CCNCC4)c3)coc2c1O[C@H]1CCC[C@H]1c1cccc(F)c1` [Example 408], the IC50 on RON (human) and on MET (human) was 0.5 to 5 µM each time.

As to `Nc1ncc2c(-c3cnn(C4CCNCC4)c3)coc2c1O[C@H]1CCCC[C@H]1c1ccccc1` [Example 409], the IC50 on RON (human) and on MET (human) was 0.5 to 5 µM in each case.

In the case of `C[C@@H](Oc1c(N)ncc2c(-c3cnn(C4CCNCC4)c3)coc12)c1ccncc1` [Example 397, 3-(1-Piperidin-4-yl-1H-pyrazol-4-yl)-7-((R)-1-pyridin-4-yl-ethoxy)furo[3,2-c]pyridin-6-ylamine], the IC50 at RON (human) and at MET (human) was 0.5 to 5 µM throughout.

For `CNCC(=O)N1CC=C(c2coc3c(O[C@H](C)c4c(Cl)ccc(F)c4Cl)c(N)ncc23)CC1` [Example 250, 1-[4-{6-Amino-7-[(1R)-1-(2,6-dichloro-3-fluorophenyl)ethoxy]furo[3,2-c]pyridin-3-yl}-3,6-dihydropyridin-1(2H)-yl]-2-(methylamino)ethanone], the half-maximal inhibitory concentration (IC50) at RON (human) and on MET (human) was less than 0.5 µM in each case.

Consider `C[C@@H](Oc1c(N)ncc2c(-c3ccc(C(=O)N(C)C)s3)coc12)c1c(Cl)ccc(F)c1Cl` [Example 208, 5-{6-Amino-7-[(R)-1-(2,6-dichloro-3-fluorophenyl)ethoxy]-furo[3,2-c]pyridin-3-yl}-thiophene-2-carboxylic acid dimethyl amide], for which the IC50 on RON (human) and at MET (human) was 0.5 to 5 µM in each case.

Take `C[C@@H](Oc1c(N)ncc2c(C3=CCN(C(=O)c4cnn[nH]4)CC3)coc12)c1c(Cl)ccc(F)c1Cl` [Example 230, (4-{6-Amino-7-[(R)-1-(2,6-dichloro-3-fluorophenyl)ethoxy]-furo[3,2-c]pyridin-3-yl}-3,6-dihydro-2H-pyridin-1-yl)-(3H-[1,2,3]triazol-4-yl)-methanone]: the IC50 at RON (human) and on MET (human) was 0.5 to 5 µM throughout.

As to `COC(=O)c1ccc(C(C)Oc2c(N)ncc3c(-c4cnn(C5CCNCC5)c4)coc23)cc1` (centres unmarked) [Example 422, 4-{1-[6-Amino-3-(1-piperidin-4-yl-1H-pyrazol-4-yl)furo[3,2-c]pyridin-7-yloxy]ethyl}benzoic acid methyl ester], the IC50 on RON (human) and on MET (human) was 0.5 to 5 µM throughout.

`Cc1cscc1-c1coc2c(O[C@H](C)c3c(Cl)ccc(F)c3Cl)c(N)ncc12` [Example 111, 7-[(R)-1-(2,6-Dichloro-3-fluorophenyl)ethoxy]-3-(4-methylthiophen-3-yl)furo[3,2-c]pyridin-6-ylamine]: the IC50 at RON (human) and on MET (human) was 0.5 to 5 µM throughout.

Consider `CNS(=O)(=O)c1cccc(-c2coc3c(O[C@H](C)c4c(Cl)ccc(F)c4Cl)c(N)ncc23)c1` [Example 83, 3-{6-Amino-7-[(R)-1-(2,6-dichloro-3-fluorophenyl)ethoxy]-furo[3,2-c]pyridin-3-yl}-N-methylbenzenesulfonamide], for which the IC50 on RON (human) and at MET (human) was 0.5 to 5 µM in each case.

On to `C[C@@H](Oc1c(N)ncc2c(C3=CCN(C(=O)c4ncc[nH]4)CC3)coc12)c1c(Cl)ccc(F)c1Cl` [Example 232, (4-{6-Amino-7-[(R)-1-(2,6-dichloro-3-fluorophenyl)ethoxy]-furo[3,2-c]pyridin-3-yl}-3,6-dihydro-2H-pyridin-1-yl)-(1H-imidazol-2-yl)-methanone], for which the IC50 on RON (human) and on MET (human) was 0.5 to 5 µM throughout.

With `C[C@@H](Oc1c(N)ncc2c(-c3csc(CN4CCC4)c3)coc12)c1c(Cl)ccc(F)c1Cl` [Example 309, 3-(5-Azetidin-1-ylmethylthiophen-3-yl)-7-[(R)-1-(2,6-dichloro-3-fluorophenyl)ethoxy]furo[3,2-c]pyridin-6-ylamine], the IC50 on RON (human) and on MET (human) was less than 0.5 µM in each case.

Consider `C[C@H](Oc1c(N)ncc2ccoc12)c1nnc2ccc(-c3cnn(C)c3)nn12` [Example 474, 7-{(1S)-1-[6-(1-methyl-1H-pyrazol-4-yl) [1,2,4]triazolo[4,3-b]pyridazin-3-yl]ethoxy}furo[3,2-c]pyridin-6-amine], for which the IC50 was greater than 20 µM at RON (human) and 0.5 to 5 µM at MET (human).

Turning to `CC(Oc1c(N)ncc2c(-c3cnn(C4CCNCC4)c3)coc12)c1cccc(C(F)(F)F)c1` (centres unmarked) [Example 347, 3-(1-Piperidin-4-yl-1H-pyrazol-4-yl)-7-[1-(3-trifluoromethyl-phenyl)ethoxy]furo[3,2-c]pyridin-6-ylamine], the concentration for half-maximal inhibition (IC50) is 0.5 to 5 µM at RON (human) and less than 0.5 µM on MET (human).

Take `C[C@@H](Oc1c(N)ncc2c(-c3cc(C(=O)O)cs3)coc12)c1c(Cl)ccc(F)c1Cl` [Example 325, 5-{6-Amino-7-[(R)-1-(2,6-dichloro-3-fluorophenyl)ethoxy]furo[3,2-c]pyridin-3-yl}thiophene-3-carboxylic acid]: the IC50 on RON (human) and on MET (human) was 5 to 20 µM in each case.

With `C[C@@H](Oc1c(N)ncc2c(-c3ccc(C(=O)NCCCO)cc3)coc12)c1c(Cl)ccc(F)c1Cl` [Example 288, 4-{6-Amino-7-[(R)-1-(2,6-dichloro-3-fluorophenyl)ethoxy]furo[3,2-c]pyridin-3-yl}-N-(3-hydroxypropyl)benzamide], the IC50 at RON (human) and on MET (human) was 0.5 to 5 µM in each case.

As for `C[C@@H](Oc1c(N)ncc2c(-c3ccc(C#N)nc3)coc12)c1c(Cl)ccc(F)c1Cl` [Example 125, 5-{6-Amino-7-[(R)-1-(2,6-dichloro-3-fluorophenyl)-ethoxy]furo[3,2-c]pyridin-3-yl}pyridine-2-carbonitrile], the figures for the IC50 on RON (human) and at MET (human) were 5 to 20 µM and 0.5 to 5 µM, respectively.

In the case of `CC(=O)Nc1ccc(-c2coc3c(O[C@H](C)c4c(Cl)ccc(F)c4Cl)c(N)ncc23)cc1` [Example 58, N-(4-{6-Amino-7-[(R)-1-(2,6-dichloro-3-fluorophenyl)ethoxy]-furo[3,2-c]pyridin-3-yl}phenyl)acetamide], the IC50 on RON (human) and on MET (human) was 0.5 to 5 µM throughout.

As for `C[C@@H](Oc1c(N)ncc2c(C(=O)NCCCN(C)C)coc12)c1c(Cl)ccc(F)c1Cl` [Example 189, 6-Amino-7-[(R)-1-(2,6-dichloro-3-fluorophenyl)ethoxy]furo[3,2-c]pyridine-3-carboxylic acid (3-dimethylaminopropyl)amide], the values for the IC50 on RON (human) and on MET (human) were 0.5 to 5 µM and less than 0.5 µM, respectively.

Broadly, the IC50 is the concentration at which inhibition is half-maximal.
